Assay results reported in ChEMBL document CHEMBL4138197, “Design, synthesis and pharmacological evaluation of N-(5-chloro-2,4-dihydroxybenzoyl)-(R)-N-arylmethyl-1,2,3,4-tetrahydro-3-isoquinolinecarboxamides as potent Hsp90 inhibitors” (Eur J Med Chem, 2018).
The source made the active and inactive calls. The calls are words filed in the database; no cut-off is given here.

Assays:
A549 [1] = assay: Antiproliferative activity against human A549 cells after 72 hrs by SRB assay; assay type: functional, cell-based; conditions: A549, 72 h
MDA-MB-231 = assay: Antiproliferative activity against human MDA-MB-231 cells after 72 hrs by SRB assay; assay type: functional, cell-based; conditions: MDA-MB-231, 72 h
[2] = target: Heat shock protein HSP 90-alpha (Homo sapiens) (UniProt P07900); assay: Binding affinity to HSP90alpha in HEK293T cells assessed as induction of thermal stabilisation of HSP90alpha pre-incubated for 3 hrs followed by heating at 37 to 63 degC for 3 mins then subsequent cooling for 3 mins by Western blot-based CESTA relative to beta actin; assay type: cell-based
[3] = target: Heat shock protein HSP 90-alpha (Homo sapiens) (UniProt P07900); assay: Inhibition of HSP90alpha in human MDA-MB-453 cells assessed as down-regulation of HER2 levels by Western blot analysis; assay type: cell-based
[4] = target: Heat shock protein HSP 90-alpha (Homo sapiens) (UniProt P07900); assay: Inhibition of HSP90alpha in human MDA-MB-453 cells assessed as down-regulation of EGFR levels by Western blot analysis; assay type: cell-based
[5] = target: Heat shock protein HSP 90-alpha (Homo sapiens) (UniProt P07900); assay: Inhibition of HSP90alpha in human MDA-MB-453 cells assessed as down-regulation of cdc2 levels by Western blot analysis; assay type: cell-based
[6] = target: Heat shock protein HSP 90-alpha (Homo sapiens) (UniProt P07900); assay: Inhibition of HSP90alpha in human MDA-MB-453 cells assessed as down-regulation of CDK4 levels by Western blot analysis; assay type: cell-based
[7] = target: Heat shock protein HSP 90-alpha (Homo sapiens) (UniProt P07900); assay: Inhibition of HSP90alpha in human MDA-MB-453 cells assessed as down-regulation of CHK1 levels by Western blot analysis; assay type: cell-based
[8] = target: Heat shock protein HSP 90-alpha (Homo sapiens) (UniProt P07900); assay: Inhibition of HSP90alpha in human MDA-MB-453 cells assessed as down-regulation of AKT levels by Western blot analysis; assay type: cell-based
MDA-MB-453 [9] = assay: Cell cycle arrest in human MDA-MB-453 cells assessed as increase in accumulation at G0/G1 phase at 0.25 to 1 uM after 12 hrs by propidium iodide-staining based flow cytometry; assay type: functional
U-251 = assay: Antiproliferative activity against human U251 cells by SRB assay; assay type: functional, cell-based
HCT-116 = assay: Antiproliferative activity against human HCT116 cells by SRB assay; assay type: functional, cell-based
A549 [10] = assay: Antiproliferative activity against human A549 cells by SRB assay; assay type: functional, cell-based
MDA-MB-453 [11] = assay: Induction of apoptosis in human MDA-MB-453 cells after 48 hrs by Annexin V-FITC/propidium iodide-staining based flow cytometry; assay type: functional, cell-based
MDA-MB-453 [12] = assay: Induction of apoptosis in human MDA-MB-453 cells assessed as late apoptotic cells at 0.25 uM after 48 hrs by Annexin V-FITC/propidium iodide-staining based flow cytometry (reference value: 3.40%); assay type: functional
MDA-MB-453 [13] = assay: Induction of apoptosis in human MDA-MB-453 cells assessed as necrotic cells at 0.25 uM after 48 hrs by Annexin V-FITC/propidium iodide-staining based flow cytometry (reference value: 0.01%); assay type: functional
MDA-MB-453 [14] = assay: Induction of apoptosis in human MDA-MB-453 cells assessed as early apoptotic cells at 1 uM after 48 hrs by Annexin V-FITC/propidium iodide-staining based flow cytometry (reference value: 1.65%); assay type: functional
MDA-MB-453 [15] = assay: Induction of apoptosis in human MDA-MB-453 cells assessed as late apoptotic cells at 1 uM after 48 hrs by Annexin V-FITC/propidium iodide-staining based flow cytometry (reference value: 3.40%); assay type: functional
MDA-MB-453 [16] = assay: Induction of apoptosis in human MDA-MB-453 cells assessed as necrotic cells at 1 uM after 48 hrs by Annexin V-FITC/propidium iodide-staining based flow cytometry (reference value: 0.01%); assay type: functional
MDA-MB-453 [17] = assay: Induction of apoptosis in human MDA-MB-453 cells assessed as necrotic cells at 4 uM after 48 hrs by Annexin V-FITC/propidium iodide-staining based flow cytometry (reference value: 0.01%); assay type: functional
MDA-MB-453 [18] = assay: Induction of apoptosis in human MDA-MB-453 cells assessed as increase in cleaved caspase3 activity at 0.25 uM up to 48 hrs in presence of z-VAD-fmk by Western blot analysis; assay type: functional, cell-based
MDA-MB-453 [19] = assay: Induction of apoptosis in human MDA-MB-453 cells assessed downregulation of bcl2 expression at 0.25 uM at 48 hrs by Western blot analysis; assay type: functional, cell-based
MDA-MB-453 [20] = assay: Induction of apoptosis in human MDA-MB-453 cells assessed downregulation of bcl-xl expression at 0.25 uM at 48 hrs by Western blot analysis; assay type: functional, cell-based
[21] = target: T1, Heat shock protein HSP90 (Homo sapiens) (UniProt P07900+P08238); assay: Inhibition of HSP90 in human MDA-MB-453 cells assessed as suppression of TNFalpha-induced NFkappaB activation by measuring reduction in IKBalpha degradation at 0.25 uM after 24 hrs by Western blot analysis; assay type: cell-based
[22] = target: T1, Heat shock protein HSP90 (Homo sapiens); assay: Inhibition of HSP90 in human MDA-MB-453 cells assessed as downmodulation of IKKalpha expression at 0.25 uM up to 48 hrs by Western blot analysis; assay type: cell-based
[23] = target: T1, Heat shock protein HSP90 (Homo sapiens); assay: Inhibition of HSP90 in human MDA-MB-453 cells assessed as downmodulation of IKKbeta expression at 0.25 uM up to 48 hrs by Western blot analysis; assay type: cell-based
[24] = target: T1, Heat shock protein HSP90 (Homo sapiens); assay: Inhibition of HSP90 in human MDA-MB-453 cells assessed as downmodulation of IKKgamma expression at 0.25 uM up to 48 hrs by Western blot analysis; assay type: cell-based
[25] = target: T2, MAP kinase p38 (Homo sapiens) (UniProt O15264+Q15759+Q16539+P53778); assay: Induction of p38 phosphorylation in human MDA-MB-453 cells at 0.25 uM after 48 hrs by Western blot analysis; assay type: cell-based
[26] = target: T2, MAP kinase p38 (Homo sapiens); assay: Induction of p38 phosphorylation in human MDA-MB-453 cells at 0.25 uM after 48 hrs in presence of […] by Western blot analysis; assay type: cell-based
[27] = target: NF-kappa-B essential modulator (Homo sapiens) (UniProt Q9Y6K9); assay: Induction of IKKgamma association to hsp27 in human MDA-MB-453 cells at 0.25 uM after 6 hrs by immunoprecipitation and Western analysis; assay type: cell-based
Sequence of NF-kappa-B essential modulator (Homo sapiens) (Q9Y6K9 whole entry): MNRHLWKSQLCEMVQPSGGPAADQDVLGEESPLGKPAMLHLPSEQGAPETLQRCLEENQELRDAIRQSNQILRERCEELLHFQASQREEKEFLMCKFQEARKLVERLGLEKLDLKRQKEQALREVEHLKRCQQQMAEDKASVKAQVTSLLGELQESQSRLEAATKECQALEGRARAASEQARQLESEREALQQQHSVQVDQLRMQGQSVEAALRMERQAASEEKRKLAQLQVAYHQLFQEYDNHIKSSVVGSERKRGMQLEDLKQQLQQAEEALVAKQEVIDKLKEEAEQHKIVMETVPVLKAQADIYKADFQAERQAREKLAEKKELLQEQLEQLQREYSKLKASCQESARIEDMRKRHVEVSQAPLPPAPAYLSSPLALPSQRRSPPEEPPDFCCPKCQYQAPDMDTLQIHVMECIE

IC50 (A549 [1]): 420 nM
IC50 (MDA-MB-231): 300 nM
Activity [2]: Dose-dependent effect
inhibition [3]: Dose-dependent effect
inhibition [4]: Dose-dependent effect
inhibition [5]: Dose-dependent effect
inhibition [6]: Dose-dependent effect
inhibition [7]: Dose-dependent effect
inhibition [8]: Dose-dependent effect
inhibition [21]: Active
inhibition [22]: Active
inhibition [23]: Active
inhibition [24]: Active
Activity [25]: Active
Activity [26]: inactive
Activity [27]: Active
Compound: O=C(NCc1ccncc1)[C@H]1Cc2ccccc2CN1C(=O)c1cc(Cl)c(O)cc1O
Activity (MDA-MB-453 [9]): Active
Activity (U-251): Active
Activity (HCT-116): Active
Activity (A549 [10]): Active
Activity (MDA-MB-453 [11]): Dose-dependent effect
Activity (MDA-MB-453 [12]): 4.19%
Activity (MDA-MB-453 [13]): 0.02%
Activity (MDA-MB-453 [14]): 15.88%
Activity (MDA-MB-453 [15]): 15.11%
Activity (MDA-MB-453 [16]): 0.03%
Activity (MDA-MB-453 [17]): 0.54%
Activity (MDA-MB-453 [18]): inactive
Activity (MDA-MB-453 [19]): Active
Activity (MDA-MB-453 [20]): Active
